For assay [1], the system named is HL-60. The assay is described as follows: Cytotoxicity against human HL60 cells after 72 hrs by MTT assay. It is filed as functional, cell-based. On the technique in general: Tetrazolium assays rely on reduction of a dye to a coloured formazan, in cell work by metabolically active cells.
Assay [2] has as its system U-937. The assay is described as follows: Cytotoxicity against human U937 cells after 72 hrs by MTT assay. The assay is classed as functional, cell-based.
Assay [3] relates to MOLT-3. The experiment in a line: Cytotoxicity against human MOLT3 cells after 72 hrs by MTT assay. The assay is classed as functional, cell-based.
The test system of assay [4] is MCF7. The experiment in a line: Cytotoxicity against human MCF7 cells after 72 hrs by MTT assay. The assay is classed as functional, cell-based.
Assay [5] deals with HL-60. The assay is described as follows: Cytotoxicity against human HL60 cells assessed as morphological changes at 10 uM after 24 hrs by inverted phase-contrast microscopic analysis. It is filed as functional, cell-based.
The subject of assay [6] is U-937. The experiment in a line: Cytotoxicity against human U937 cells assessed as morphological changes at 10 uM after 24 hrs by inverted phase-contrast microscopic analysis. It is filed as functional, cell-based.
The test system of assay [7] is MOLT-3. The assay is described as follows: Cytotoxicity against human MOLT3 cells assessed as morphological changes at 10 uM after 24 hrs by inverted phase-contrast microscopic analysis. The assay is classed as functional, cell-based.
Assay [8] deals with MCF7. The experiment in a line: Cytotoxicity against human MCF7 cells assessed as morphological changes at 10 uM after 24 hrs by inverted phase-contrast microscopic analysis. It is filed as functional, cell-based.
The test system of assay [9] is HL-60. The experiment in a line: Cytotoxicity against human HL60 cells assessed as reduction in cell number at 10 uM after 24 hrs by inverted phase-contrast microscopic analysis. It is filed as functional, cell-based.
The subject of assay [10] is U-937. The assay is described as follows: Cytotoxicity against human U937 cells assessed as reduction in cell number at 10 uM after 24 hrs by inverted phase-contrast microscopic analysis. It is filed as functional, cell-based.
Assay [11] deals with MOLT-3. The experiment in a line: Cytotoxicity against human MOLT3 cells assessed as reduction in cell number at 10 uM after 24 hrs by inverted phase-contrast microscopic analysis. The assay is classed as functional, cell-based.
Assay [12] relates to U-937. The experiment in a line: Induction of apoptosis in human U937 cells assessed as increase in apoptotic cells at 10 uM after 24 hrs by propidium iodide staining-based flow cytometric analysis (reference value: 2.3 /- 0.4%). It is filed as functional. For orientation: A flow cytometer gives signals particle by particle.
In assay [13] the test system is MOLT-3. The experiment in a line: Induction of apoptosis in human MOLT3 cells assessed as increase in apoptotic cells at 10 uM after 24 hrs by propidium iodide staining-based flow cytometric analysis (reference value: 3.1 /- 0.7%). The assay is classed as functional.
Assay [14] deals with HL-60. The assay is described as follows: Induction of apoptosis in human HL60 cells assessed as increase in chromatin condensation at 10 uM after 24 hrs by Hoechst staining-based flow cytometric analysis. The assay is classed as functional, cell-based.
Assay [15] has as its system U-937. The assay is described as follows: Induction of apoptosis in human U937 cells assessed as increase in chromatin condensation at 10 uM after 24 hrs by Hoechst staining-based flow cytometric analysis. It is filed as functional, cell-based.
The test system of assay [16] is HL-60. The assay is described as follows: Induction of apoptosis in human HL60 cells assessed as […] hydrolysis of chromatin at 10 uM after 24 hrs by agarose gel electrophoretic analysis. It is filed as functional, cell-based.
The test system of assay [17] is MOLT-3. The assay is described as follows: Induction of apoptosis in human MOLT3 cells assessed as increase in chromatin condensation at 10 uM after 24 hrs by Hoechst staining-based flow cytometric analysis. The assay is classed as functional, cell-based.
The test system of assay [18] is U-937. The experiment in a line: Induction of apoptosis in human U937 cells assessed as […] hydrolysis of chromatin at 10 uM after 24 hrs by agarose gel electrophoretic analysis. It is filed as functional, cell-based.
Assay [19] relates to MOLT-3. The experiment in a line: Induction of apoptosis in human MOLT3 cells assessed as […] hydrolysis of chromatin at 10 uM after 24 hrs by agarose gel electrophoretic analysis. The assay is classed as functional, cell-based.

The record followed here is ChEMBL document CHEMBL2029327, “Synthetic menthyl α/β-(1→6)-diglucopyranosides-induced cell death in human leukemia cells is dependent on caspases” (Bioorg Med Chem Lett, 2012).

Activity calls are given as the source filed them. The rule behind the calls is not given here.

Usually IC50 stands for the concentration at which inhibition is half-maximal. Read a high IC50 as lower potency. In the case of `CC(C)[C@H]1CC[C@H](C)C[C@@H]1O[C@H]1O[C@H](CO[C@@H]2O[C@H](COC(=O)c3ccc(Br)cc3)[C@@H](OC(=O)c3ccc(Br)cc3)[C@H](O)[C@H]2O)[C@@H](O)[C@H](O)[C@H]1O`, the Activity entry with HL-60 [1] is “Dose-dependent effect”; in the assay with U-937 [2], “Dose-dependent effect”; in the assay with MOLT-3 [3], “Dose-dependent effect”; in the assay on MCF7 [4], “Dose-dependent effect”; in the assay on U-937 [12], 46%; with MOLT-3 [13], 69.5%. Besides, the half-maximal inhibitory concentration (IC50) in the assay with HL-60 [1] (HL-60, 72 h) is 7.3 µM; with U-937 [2] (U-937, 72 h), 6.9 µM; in the assay with MOLT-3 [3] (MOLT-3, 72 h) it was 5.8 µM; with MCF7 [4] (MCF7, 72 h), 6.1 µM. Besides, the result in the assay with HL-60 [5], in the assay with U-937 [6], in the assay on MOLT-3 [7], with MCF7 [8], with HL-60 [9] and in the assay with U-937 [10] was Active. In addition, the outcome in the assay with MOLT-3 [11], in the assay on HL-60 [14], in the assay with U-937 [15], in the assay with HL-60 [16], with MOLT-3 [17] and with U-937 [18] was Active. Moreover, the result with MOLT-3 [19] was Active.
